The source of these data is US10660877B2 (BRISTOL-MYERS SQUIBB COMPANY, priority 2016, dated 2020).

In one assay the target is human TLR9 (Homo sapiens (Human), UniProt Q9NR96). Description: TLR9 inhibition reporter assay (HEK-Blue cells, SEAP reporter, ODN2006 stimulation).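 Note: compounds tested over 0.05 nM to 50 µM, 22 h incubation, inhibition taken as SEAP signal drop from agonist plus DMSO wells toward a known inhibitor control.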
A further assay addresses human TLR8 (Homo sapiens (Human), UniProt Q9NR97). In words: TLR8 inhibition reporter assay (HEK-Blue cells, SEAP reporter, R848 stimulation).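 Note: compounds tested from 0.05 nM to 50 µM, 22 h at 37 °C, SEAP measured with HEK-Blue Detection, inhibition relative to agonist plus DMSO versus a known inhibitor.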
A further assay addresses human TLR7 (Homo sapiens (Human), UniProt Q9NYK1). Description: TLR7 inhibition reporter assay (HEK-Blue cells, SEAP reporter, gardiquimod stimulation). In kind it is cell-based.
Setting [1] is: read-out: TLR9 IC50, HEK-Blue cells overexpressing human TLR9, ODN2006 5 nM.
Where [2] appears, read: read-out: TLR8 IC50, HEK-Blue cells overexpressing human TLR8, R848 15.9 μM.
Where [3] appears, read: HEK-Blue cells overexpressing human TLR7, gardiquimod 7.5 μM.
Setting [4] is: TLR9 IC50, HEK-Blue cells overexpressing human TLR9, ODN2006 5 nM.
Where [5] appears, read: TLR8 IC50, HEK-Blue cells overexpressing human TLR8, R848 15.9 μM.
The mark [6] stands for this setting: read-out: TLR9 IC50, HEK-Blue cells, ODN2006 5 nM.
Setting [7] is: read-out: TLR8 IC50, HEK-Blue cells, R848 15.9 μM.
Setting [8] is: HEK-Blue cells, gardiquimod 7.5 μM.

Read-outs that look alike come from different tables or passages of the source. A value given as a limit tells only on which side of the number the result lay.

human TLR7, sequence (Q9NYK1 27-1049): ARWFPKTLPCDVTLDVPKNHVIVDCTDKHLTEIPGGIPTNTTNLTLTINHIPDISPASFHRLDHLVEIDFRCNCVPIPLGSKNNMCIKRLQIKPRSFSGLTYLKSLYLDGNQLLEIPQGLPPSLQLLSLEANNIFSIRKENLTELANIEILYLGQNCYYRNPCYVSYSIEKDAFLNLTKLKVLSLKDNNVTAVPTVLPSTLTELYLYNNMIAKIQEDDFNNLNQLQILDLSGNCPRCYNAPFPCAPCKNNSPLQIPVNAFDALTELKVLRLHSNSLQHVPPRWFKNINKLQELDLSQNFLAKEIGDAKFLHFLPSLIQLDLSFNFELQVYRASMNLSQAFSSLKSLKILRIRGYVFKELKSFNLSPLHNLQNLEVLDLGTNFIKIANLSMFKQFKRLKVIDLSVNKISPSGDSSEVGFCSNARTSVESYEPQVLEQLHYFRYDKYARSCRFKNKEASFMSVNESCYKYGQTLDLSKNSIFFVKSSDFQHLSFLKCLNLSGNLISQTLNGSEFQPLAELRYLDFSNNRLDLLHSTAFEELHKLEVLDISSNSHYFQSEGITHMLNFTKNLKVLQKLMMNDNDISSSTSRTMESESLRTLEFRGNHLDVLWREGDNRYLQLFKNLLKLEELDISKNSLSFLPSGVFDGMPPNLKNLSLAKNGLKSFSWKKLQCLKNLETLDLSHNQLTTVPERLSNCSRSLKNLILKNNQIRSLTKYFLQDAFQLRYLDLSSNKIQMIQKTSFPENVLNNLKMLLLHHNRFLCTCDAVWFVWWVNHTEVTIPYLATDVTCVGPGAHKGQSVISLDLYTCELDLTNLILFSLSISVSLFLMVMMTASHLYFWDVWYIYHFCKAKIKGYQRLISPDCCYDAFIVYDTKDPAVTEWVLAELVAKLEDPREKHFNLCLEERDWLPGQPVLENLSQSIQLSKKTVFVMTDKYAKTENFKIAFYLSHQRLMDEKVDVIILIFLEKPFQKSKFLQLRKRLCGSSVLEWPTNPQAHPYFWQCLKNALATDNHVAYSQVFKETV
human TLR9, sequence (Q9NR96 26-1032): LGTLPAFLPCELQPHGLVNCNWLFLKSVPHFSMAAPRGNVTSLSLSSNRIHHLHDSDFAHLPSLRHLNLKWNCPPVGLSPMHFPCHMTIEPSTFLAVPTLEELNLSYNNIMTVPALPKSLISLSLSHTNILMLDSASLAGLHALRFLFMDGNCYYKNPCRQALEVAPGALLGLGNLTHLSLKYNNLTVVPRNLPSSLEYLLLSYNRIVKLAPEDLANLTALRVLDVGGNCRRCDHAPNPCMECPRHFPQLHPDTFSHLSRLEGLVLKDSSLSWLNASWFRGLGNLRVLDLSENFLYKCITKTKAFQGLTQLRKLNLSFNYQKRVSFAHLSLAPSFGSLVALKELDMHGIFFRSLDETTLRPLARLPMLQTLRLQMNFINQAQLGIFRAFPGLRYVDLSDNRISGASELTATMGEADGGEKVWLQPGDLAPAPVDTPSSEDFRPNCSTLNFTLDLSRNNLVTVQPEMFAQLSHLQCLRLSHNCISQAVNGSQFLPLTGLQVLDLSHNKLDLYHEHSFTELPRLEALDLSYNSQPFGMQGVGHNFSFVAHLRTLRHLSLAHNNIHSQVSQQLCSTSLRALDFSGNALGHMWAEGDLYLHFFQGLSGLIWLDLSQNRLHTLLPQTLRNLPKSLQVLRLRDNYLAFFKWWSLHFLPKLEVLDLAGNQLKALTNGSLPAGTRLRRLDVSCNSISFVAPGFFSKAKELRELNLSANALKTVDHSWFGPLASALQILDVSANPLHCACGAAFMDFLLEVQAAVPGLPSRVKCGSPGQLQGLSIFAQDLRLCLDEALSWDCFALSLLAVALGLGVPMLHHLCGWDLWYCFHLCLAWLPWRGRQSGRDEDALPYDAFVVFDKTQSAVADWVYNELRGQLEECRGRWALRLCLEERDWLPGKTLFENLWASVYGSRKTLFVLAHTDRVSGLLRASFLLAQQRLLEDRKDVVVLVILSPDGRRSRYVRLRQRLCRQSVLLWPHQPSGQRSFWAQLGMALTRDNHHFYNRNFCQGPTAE
human TLR8, sequence (Q9NR97 27-1041): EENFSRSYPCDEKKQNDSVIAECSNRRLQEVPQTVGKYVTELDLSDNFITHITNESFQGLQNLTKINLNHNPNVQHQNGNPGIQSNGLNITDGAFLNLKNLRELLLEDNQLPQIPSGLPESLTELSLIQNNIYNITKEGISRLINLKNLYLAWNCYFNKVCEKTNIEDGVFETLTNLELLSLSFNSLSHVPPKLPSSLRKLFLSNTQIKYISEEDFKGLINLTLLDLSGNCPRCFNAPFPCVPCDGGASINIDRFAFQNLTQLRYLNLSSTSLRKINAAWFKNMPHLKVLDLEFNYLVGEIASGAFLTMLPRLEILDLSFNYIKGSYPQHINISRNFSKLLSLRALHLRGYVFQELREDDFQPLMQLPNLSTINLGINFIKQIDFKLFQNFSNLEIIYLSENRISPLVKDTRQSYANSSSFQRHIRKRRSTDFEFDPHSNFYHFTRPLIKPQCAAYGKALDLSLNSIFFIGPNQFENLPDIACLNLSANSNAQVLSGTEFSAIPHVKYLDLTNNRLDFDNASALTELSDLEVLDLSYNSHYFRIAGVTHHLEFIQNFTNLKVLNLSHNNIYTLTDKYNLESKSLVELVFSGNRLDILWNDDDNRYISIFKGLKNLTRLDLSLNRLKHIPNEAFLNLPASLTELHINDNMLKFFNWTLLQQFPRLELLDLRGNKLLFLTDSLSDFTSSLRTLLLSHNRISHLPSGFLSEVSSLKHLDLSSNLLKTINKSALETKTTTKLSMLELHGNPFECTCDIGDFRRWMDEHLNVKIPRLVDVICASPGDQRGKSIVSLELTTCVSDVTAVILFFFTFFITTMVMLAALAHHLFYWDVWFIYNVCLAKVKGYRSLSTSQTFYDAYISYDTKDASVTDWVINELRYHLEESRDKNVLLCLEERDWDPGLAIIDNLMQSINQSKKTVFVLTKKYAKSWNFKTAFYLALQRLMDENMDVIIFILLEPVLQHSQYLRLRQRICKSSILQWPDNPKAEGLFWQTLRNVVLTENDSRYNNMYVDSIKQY
Description for human TLR9: TLR7/8/9 Inhibition Reporter Assays
Briefly, cells are seeded into Greiner 384 well plates (15000 cells per well for TLR7, 20,000 for TLR8 and 25,000 for TLR9) and then treated with test compounds in DMSO to yield a final dose response concentration range of 0.05 nM-50 μM. […] After a 22 hour incubation at 37° C., 5% CO2, SEAP levels are determined with the addition of HEK-Blue™ Detection reagent (Invivogen), a cell culture medium that allows for detection of SEAP, according to manufacturer's specifications. The percent inhibition is determined as the % reduction in the HEK-Blue signal present in wells treated with agonist plus DMSO alone compared to wells treated with a known inhibitor.

With `Cc1cc(-c2[nH]c3ccc(C4CCN(C(=O)C5CC(=O)N(C)C5)CC4)cc3c2C(C)C)ccn1` (stereo not drawn) [Example 566, 4-(4-(3-isopropyl-2-(2-methylpyridin-4-yl)-1H-indol-5-yl)piperidine-1-carbonyl)-1-methylpyrrolidin-2-one], the 50% inhibitory concentration (IC50) was above 50000 nM on human TLR9 (setting [1]), 118 nM at human TLR8 (setting [2]) and 78.8 nM against human TLR7 (setting [3]).

Regarding `CCCN(CCO)CC(=O)N1CCC(c2ccc3[nH]c(-c4cc(C)nc(C)c4)c(C(C)C)c3c2)CC1` [Example 398, 1-(4-(2-(2,6-dimethylpyridin-4-yl)-3-isopropyl-1H-indol-5-yl)piperidin-1-yl)-2-((2-hydroxyethyl)(propyl)amino)ethan-1-one], the IC50 was determined as 771 nM on human TLR9 (setting [1]), 26 nM at human TLR8 (setting [2]) and 3.5 nM against human TLR7 (setting [3]).

With `Cc1cc(-c2[nH]c3ccc(C4CCN(C(C)C(=O)N(C)C)CC4)cc3c2CC(F)F)cc(C)n1` (stereo not drawn) [Example 493, 2-(4-(3-(2,2-difluoroethyl)-2-(2,6-dimethylpyridin-4-yl)-1H-indol-5-yl)piperidin-1-yl)-N,N-dimethylpropanamide], the IC50 is 1640 nM on human TLR9 (setting [1]), 498 nM on human TLR8 (setting [2]) and 84.5 nM on human TLR7 (setting [3]).

In the case of `Cc1cc(-c2[nH]c3ccc(C4CCN(CC(O)C(F)(F)F)CC4)cc3c2C(C)C)ccn1` (stereo not drawn) [Example 661, 1,1,1-trifluoro-3-(4-(3-isopropyl-2-(2-methylpyridin-4-yl)-1H-indol-5-yl)piperidin-1-yl)propan-2-ol], the IC50 amounted to 1940 nM on human TLR9 (setting [1]), 3.1 nM at human TLR8 (setting [2]) and 30.9 nM against human TLR7 (setting [3]).

Regarding `Cc1cc(-c2[nH]c3ccc(C4CCN(C(=O)CN(C)C5COC5)CC4)cc3c2C(C)C)c(F)cn1` [Example 678, 1-(4-(2-(5-fluoro-2-methylpyridin-4-yl)-3-isopropyl-1H-indol-5-yl)piperidin-1-yl)-2-(methyl(oxetan-3-yl)amino)ethan-1-one], the IC50 on human TLR9 (setting [1]) is above 50000 nM; at human TLR8 (setting [2]), 30.6 nM; on human TLR7 (setting [3]) it was 12.3 nM.

Consider `Cc1cc(-c2[nH]c3ccc(C4CCN(C(=O)C5CC(=O)N(C)C5)CC4)cc3c2C(C)C)cc(C)n1` (single isomer, unassigned) [Example 101, 4-(4-(2-(2,6-dimethylpyridin-4-yl)-3-isopropyl-1H-indol-5-yl)piperidine-1-carbonyl)-1-methylpyrrolidin-2-one], for which the IC50 against human TLR9 (setting [4]) was 36900 nM; on human TLR8 (setting [5]), 52.4 nM; on human TLR7 (setting [3]), 9.3 nM.

Regarding `CCc1c(-c2ccncc2)[nH]c2ccc(C3CCN(C4CC(C)(C)NC(C)(C)C4)CC3)cc12` [Example 807, 3-ethyl-2-(pyridin-4-yl)-5-(2′,2′,6′,6′-tetramethyl-[1,4′-bipiperidin]-4-yl)-1H-indole], the IC50 worked out at 117 nM at human TLR9 (setting [1]), 8.6 nM on human TLR8 (setting [2]) and 226 nM against human TLR7 (setting [3]).

As for `Cc1cc(-c2[nH]c3ccc(C4CCN(Cc5cnc(C)[nH]5)CC4)cc3c2C(C)C)ccn1` [Example 821, 3-isopropyl-5-(1-((2-methyl-1H-imidazol-5-yl)methyl)piperidin-4-yl)-2-(2-methylpyridin-4-yl)-1H-indole], the values for the IC50 at human TLR9 (setting [6]), on human TLR8 (setting [7]) and against human TLR7 (setting [8]) were 192 nM, 4.8 nM and 36.3 nM, respectively.

Take `COc1ncc(CN2CCC(c3ccc4[nH]c(-c5cc(C)ncc5F)c(C(C)C)c4c3)CC2)cn1` [Example 733, 2-(5-fluoro-2-methylpyridin-4-yl)-3-isopropyl-5-(1-((2-methoxypyrimidin-5-yl)methyl)piperidin-4-yl)-1H-indole]: the IC50 on human TLR9 (setting [1]) is 1810 nM; on human TLR8 (setting [2]), 4.2 nM; against human TLR7 (setting [3]), 11.1 nM.

For the compound `Cc1cc(-c2[nH]c3ccc(C4CCN(CCCN(C)C)CC4)cc3c2C(C)C)ccn1` [Example 669, 3-(4-(3-isopropyl-2-(2-methylpyridin-4-yl)-1H-indol-5-yl)piperidin-1-yl)-N,N-dimethylpropan-1-amine], the 50% inhibitory concentration (IC50) is 221 nM on human TLR9 (setting [1]), 1.9 nM at human TLR8 (setting [2]) and 2.6 nM on human TLR7 (setting [3]).

`Cc1cc(-c2[nH]c3ccc(C4CCN(CC(=O)NC(C)(C)C)CC4)cc3c2C(C)C)cc(C)n1` [Example 217, N-(tert-butyl)-2-(4-(2-(2,6-dimethylpyridin-4-yl)-3-isopropyl-1H-indol-5-yl)piperidin-1-yl)acetamide]: the figures for the IC50 at human TLR9 (setting [1]), at human TLR8 (setting [2]) and against human TLR7 (setting [3]) were 1020 nM, 25.8 nM and 6.2 nM, respectively.

Regarding `COC[C@H](O)CN1CCC(c2ccc3[nH]c(-c4cc(C)nc(C)c4)c(C(C)C)c3c2)CC1` [Example 852, (R)-1-(4-(2-(2,6-dimethylpyridin-4-yl)-3-isopropyl-1H-indol-5-yl)piperidin-1-yl)-3-methoxypropan-2-ol], the IC50 on human TLR9 (setting [6]) is 631 nM; at human TLR8 (setting [7]), 3.8 nM; against human TLR7 (setting [8]), 4.1 nM.

Regarding `Cc1cc(-c2[nH]c3ccc(C4CCN(C5CCCC5)CC4)cc3c2C(C)C)cc(C)n1` [Example 326, 5-(1-cyclopentylpiperidin-4-yl)-2-(2,6-dimethylpyridin-4-yl)-3-isopropyl-1H-indole], the IC50 is 1120 nM at human TLR9 (setting [1]), 29.2 nM on human TLR8 (setting [2]) and 16.1 nM at human TLR7 (setting [3]).

As to `Cc1cc(-c2[nH]c3ccc(C4CCN(CC(N)=O)CC4)cc3c2C(C)C)c(F)cn1` [Example 652, 2-(4-(2-(5-fluoro-2-methylpyridin-4-yl)-3-isopropyl-1H-indol-5-yl)piperidin-1-yl)acetamide], the figures for the IC50 at human TLR9 (setting [1]), at human TLR8 (setting [2]) and against human TLR7 (setting [3]) were 1290 nM, 3 nM and 1.5 nM, respectively.

As for `Cc1cc(-c2[nH]c3ccc(C4CCN(C(=O)CN5C[C@@H](O)CC5=O)CC4)cc3c2C(C)C)cc(C)n1` [Example 169, (S)-1-(2-(4-(2-(2,6-dimethylpyridin-4-yl)-3-isopropyl-1H-indol-5-yl)piperidin-1-yl)-2-oxoethyl)-4-hydroxypyrrolidin-2-one], the IC50 at human TLR9 (setting [1]) is above 50000 nM; on human TLR8 (setting [2]), 73.7 nM; against human TLR7 (setting [3]) it was 11.7 nM.

Consider `Cc1cc(-c2[nH]c3ccc(C4CCN(CC(=O)N5CC[C@@H](O)C5)CC4)cc3c2C(C)C)cc(C)n1` [Example 275, (R)-2-(4-(2-(2,6-dimethylpyridin-4-yl)-3-isopropyl-1H-indol-5-yl)piperidin-1-yl)-1-(3-hydroxypyrrolidin-1-yl)ethan-1-one], for which the concentration for half-maximal inhibition (IC50) against human TLR9 (setting [4]) turned out to be 67 nM; on human TLR8 (setting [5]), 6.8 nM; against human TLR7 (setting [3]), 1.6 nM.

For `Cc1cc(-c2[nH]c3ccc(C4CCN(C(=O)[C@@H]5C[C@@H](F)CN5)CC4)cc3c2C(C)C)cc(C)n1` [Example 190, (4-(2-(2,6-dimethylpyridin-4-yl)-3-isopropyl-1H-indol-5-yl)piperidin-1-yl)((2S,4R)-4-fluoropyrrolidin-2-yl)methanone], the IC50 amounted to 281 nM at human TLR9 (setting [1]), 9.6 nM at human TLR8 (setting [2]) and 1.6 nM against human TLR7 (setting [3]).

In the case of `CCCN(CCO)C(=O)CN1CCC(c2ccc3[nH]c(-c4cc(C)nc(C)c4)c(C(C)C)c3c2)CC1` [Example 295, 2-(4-(2-(2,6-dimethylpyridin-4-yl)-3-isopropyl-1H-indol-5-yl)piperidin-1-yl)-N-(2-hydroxyethyl)-N-propylacetamide], the IC50 on human TLR9 (setting [1]) was 3170 nM; on human TLR8 (setting [2]), 142 nM; against human TLR7 (setting [3]), 30 nM.

For the compound `Cc1nccc(-c2[nH]c3ccc(C4CCN(C)CC4)cc3c2C(C)C)c1C` [Example 637, 2-(2,3-dimethylpyridin-4-yl)-3-isopropyl-5-(1-methylpiperidin-4-yl)-1H-indole], the IC50 amounted to 1540 nM at human TLR9 (setting [1]), 42.1 nM on human TLR8 (setting [2]) and 36.4 nM against human TLR7 (setting [3]).

For `Cc1cc(-c2[nH]c3ccc(C4CCN(C(=O)CNCC(C)(C)C)CC4)cc3c2C(C)C)cc(C)n1` [Example 337, 1-(4-(2-(2,6-dimethylpyridin-4-yl)-3-isopropyl-1H-indol-5-yl)piperidin-1-yl)-2-(neopentylamino)ethan-1-one], the IC50 stood at 467 nM at human TLR9 (setting [1]), 18.3 nM at human TLR8 (setting [2]) and 6.7 nM on human TLR7 (setting [3]).

In the case of `CNC(C)(C)C(=O)N1CCC(c2ccc3[nH]c(-c4cc(C)nc(C)c4)c(C(C)C)c3c2)CC1` [Example 187, 1-(4-(2-(2,6-dimethylpyridin-4-yl)-3-isopropyl-1H-indol-5-yl)piperidin-1-yl)-2-methyl-2-(methylamino)propan-1-one], the IC50 on human TLR9 (setting [1]) was found to be 971 nM; at human TLR8 (setting [2]) it was 10.5 nM; against human TLR7 (setting [3]), 1.7 nM.

In the case of `Cc1cc(-c2[nH]c3ccc(C4CCN(Cc5cncs5)CC4)cc3c2C(C)C)c(C)cn1` [Example 687, 5-((4-(2-(2,5-dimethylpyridin-4-yl)-3-isopropyl-1H-indol-5-yl)piperidin-1-yl)methyl)thiazole], the IC50 at human TLR9 (setting [1]) was determined as 4920 nM; on human TLR8 (setting [2]) it was 1.8 nM; at human TLR7 (setting [3]), 25.6 nM.

Consider `Cc1cc(-c2[nH]c3ccc(C4CCN(Cc5cc(C)on5)CC4)cc3c2C(C)C)c(C)cn1` [Example 685, 3-((4-(2-(2,5-dimethylpyridin-4-yl)-3-isopropyl-1H-indol-5-yl)piperidin-1-yl)methyl)-5-methylisoxazole], for which the IC50 on human TLR9 (setting [1]) turned out to be 7510 nM; on human TLR8 (setting [2]), 3.4 nM; against human TLR7 (setting [3]) it was 62.5 nM.

Take `Cc1cc(-c2[nH]c3ccc(C4CCN(C5CC(C)OC(C)C5)CC4)cc3c2C(C)C)cc(C)n1` (stereo not drawn) [Example 454, 2-(2,6-dimethylpyridin-4-yl)-5-(1-(2,6-dimethyltetrahydro-2H-pyran-4-yl)piperidin-4-yl)-3-isopropyl-1H-indole]: the IC50 at human TLR9 (setting [1]) stood at 358 nM; on human TLR8 (setting [2]), 10.2 nM; against human TLR7 (setting [3]), 11 nM.
